Assay results: ChEMBL document CHEMBL2074225, “Tissue distribution and chemical induction of multiple drug resistance genes in rats” (Drug Metab Dispos, 2002)

Legend:
[1] = target: Multidrug resistance protein 1a (Rattus norvegicus) (UniProt Q6PSM0); assay: (§1) TP_TRANSPORTER: Branched DNA assay in vivo SD rat, liver; type: functional, organism-based; details: Sprague-Dawley
[2] = target: T1, ATP-dependent translocase ABCB1 (Rattus norvegicus, UniProt P43245); assay: as §1; type: functional, organism-based, Sprague-Dawley
T1 sequence (P43245 whole entry): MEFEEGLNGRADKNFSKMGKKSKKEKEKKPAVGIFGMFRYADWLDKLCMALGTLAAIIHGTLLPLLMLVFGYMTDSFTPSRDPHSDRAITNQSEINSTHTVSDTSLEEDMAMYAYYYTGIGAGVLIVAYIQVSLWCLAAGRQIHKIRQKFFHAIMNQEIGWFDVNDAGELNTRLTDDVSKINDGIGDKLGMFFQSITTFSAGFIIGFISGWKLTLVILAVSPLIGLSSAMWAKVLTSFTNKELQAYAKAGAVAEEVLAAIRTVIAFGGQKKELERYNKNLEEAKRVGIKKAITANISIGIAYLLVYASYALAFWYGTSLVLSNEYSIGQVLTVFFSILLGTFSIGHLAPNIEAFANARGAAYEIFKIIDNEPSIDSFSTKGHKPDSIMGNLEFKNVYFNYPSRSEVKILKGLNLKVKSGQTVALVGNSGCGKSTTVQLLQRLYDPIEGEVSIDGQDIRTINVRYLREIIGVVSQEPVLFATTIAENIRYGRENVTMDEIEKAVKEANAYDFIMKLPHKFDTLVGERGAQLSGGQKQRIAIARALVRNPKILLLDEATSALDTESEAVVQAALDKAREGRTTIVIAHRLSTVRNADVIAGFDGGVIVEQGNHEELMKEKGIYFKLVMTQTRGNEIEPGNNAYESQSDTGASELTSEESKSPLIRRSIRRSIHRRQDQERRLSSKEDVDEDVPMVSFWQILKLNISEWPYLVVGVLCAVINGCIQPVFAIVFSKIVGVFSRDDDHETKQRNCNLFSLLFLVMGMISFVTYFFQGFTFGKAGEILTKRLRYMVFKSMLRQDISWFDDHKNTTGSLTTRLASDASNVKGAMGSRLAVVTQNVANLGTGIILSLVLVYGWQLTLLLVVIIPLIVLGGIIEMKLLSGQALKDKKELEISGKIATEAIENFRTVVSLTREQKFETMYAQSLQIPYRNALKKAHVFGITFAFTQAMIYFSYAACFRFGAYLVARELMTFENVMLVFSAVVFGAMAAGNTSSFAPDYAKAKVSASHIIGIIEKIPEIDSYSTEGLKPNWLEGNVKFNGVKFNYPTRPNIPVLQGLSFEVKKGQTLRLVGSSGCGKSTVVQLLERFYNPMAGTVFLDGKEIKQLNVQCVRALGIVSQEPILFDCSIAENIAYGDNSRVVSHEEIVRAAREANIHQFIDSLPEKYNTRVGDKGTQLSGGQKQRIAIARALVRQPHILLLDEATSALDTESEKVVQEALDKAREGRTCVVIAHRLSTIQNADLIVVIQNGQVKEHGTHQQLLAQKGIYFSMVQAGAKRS

[3] = target: T1, ATP-dependent translocase ABCB1; assay: TP_TRANSPORTER: Branched DNA assay in vivo SD rat, kidney; type: functional, organism-based, Sprague-Dawley

Chain of Multidrug resistance protein 1a (Rattus norvegicus) (Q6PSM0 as listed by the source): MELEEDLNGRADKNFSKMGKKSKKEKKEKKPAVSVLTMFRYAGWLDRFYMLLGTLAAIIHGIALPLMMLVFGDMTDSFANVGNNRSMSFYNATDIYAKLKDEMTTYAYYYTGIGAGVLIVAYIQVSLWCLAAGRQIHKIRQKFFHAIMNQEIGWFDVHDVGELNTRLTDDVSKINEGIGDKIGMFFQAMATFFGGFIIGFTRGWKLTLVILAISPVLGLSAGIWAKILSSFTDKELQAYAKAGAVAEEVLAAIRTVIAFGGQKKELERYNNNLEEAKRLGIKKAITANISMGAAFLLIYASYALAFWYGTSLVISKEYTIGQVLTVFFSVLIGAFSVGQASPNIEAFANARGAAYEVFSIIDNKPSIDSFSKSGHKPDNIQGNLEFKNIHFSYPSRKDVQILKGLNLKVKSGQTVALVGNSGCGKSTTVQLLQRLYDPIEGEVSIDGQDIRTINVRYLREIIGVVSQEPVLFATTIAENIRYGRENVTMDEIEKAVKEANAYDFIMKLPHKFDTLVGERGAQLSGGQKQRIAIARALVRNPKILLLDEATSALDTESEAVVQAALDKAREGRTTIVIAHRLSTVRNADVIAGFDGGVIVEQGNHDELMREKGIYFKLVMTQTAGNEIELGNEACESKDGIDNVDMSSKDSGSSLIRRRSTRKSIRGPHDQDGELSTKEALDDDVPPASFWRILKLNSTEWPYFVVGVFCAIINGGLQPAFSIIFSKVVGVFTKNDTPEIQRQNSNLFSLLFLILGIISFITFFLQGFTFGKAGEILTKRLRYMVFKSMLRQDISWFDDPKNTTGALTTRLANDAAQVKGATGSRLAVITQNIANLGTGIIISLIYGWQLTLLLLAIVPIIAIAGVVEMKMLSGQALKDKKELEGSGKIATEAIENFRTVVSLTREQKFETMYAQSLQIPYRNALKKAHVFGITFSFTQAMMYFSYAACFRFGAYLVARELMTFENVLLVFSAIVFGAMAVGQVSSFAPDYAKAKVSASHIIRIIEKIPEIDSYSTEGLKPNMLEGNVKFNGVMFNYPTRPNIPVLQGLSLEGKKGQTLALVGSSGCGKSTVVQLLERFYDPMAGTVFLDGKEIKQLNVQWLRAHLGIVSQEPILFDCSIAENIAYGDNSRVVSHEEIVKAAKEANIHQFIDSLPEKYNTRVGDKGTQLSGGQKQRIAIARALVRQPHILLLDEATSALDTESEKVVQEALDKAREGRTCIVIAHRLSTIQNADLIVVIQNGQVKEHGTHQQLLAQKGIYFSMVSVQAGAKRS

Activity [1]	Activity [2]	Activity [3]	Structure (SMILES)
inducer [+]			NNC(=O)c1ccncc1
	inducer [+]		OCc1c[nH]c2ccccc12 [INDOLE-3-CARBINOL]

More lines, now with the values behind:

Structure (SMILES)	Activity [1]	Activity [2]	Activity [3]
C=CCSCC=C	inducer [+]		
Cc1c(-c2cnccn2)ssc1=S	inducer [+]		
Clc1ccc(-c2cc(Cl)c(Cl)cc2Cl)c(Cl)c1 [POLYCHLORINATED BIPHENYL 99]		inducer [+]	
CN(N=O)C(=O)N[C@@H](C=O)[C@@H](O)[C@H](O)[C@H](O)CO [STREPTOZOCIN]		inducer [+]	inducer [+]
